Data from patent US10653645B2, “Method for enhancing folding and transport of misfolded glucocerebrosidase” (The Hospital for Sick Children, priority 2007, dated 2020).
Where two headings read alike, the source gives them in different places.

Assays:
[1] = biological target: T1, wild type (WT) GCase (Homo sapiens, UniProt P04062, R534H); test: Heat denaturation of GCase at 50° C.; assay type: biochemical; settings: for increase of the half life of GCase: 20 μM
T1 construct: purchased Genzyme
T1 sequence (P04062 40-536 R534H): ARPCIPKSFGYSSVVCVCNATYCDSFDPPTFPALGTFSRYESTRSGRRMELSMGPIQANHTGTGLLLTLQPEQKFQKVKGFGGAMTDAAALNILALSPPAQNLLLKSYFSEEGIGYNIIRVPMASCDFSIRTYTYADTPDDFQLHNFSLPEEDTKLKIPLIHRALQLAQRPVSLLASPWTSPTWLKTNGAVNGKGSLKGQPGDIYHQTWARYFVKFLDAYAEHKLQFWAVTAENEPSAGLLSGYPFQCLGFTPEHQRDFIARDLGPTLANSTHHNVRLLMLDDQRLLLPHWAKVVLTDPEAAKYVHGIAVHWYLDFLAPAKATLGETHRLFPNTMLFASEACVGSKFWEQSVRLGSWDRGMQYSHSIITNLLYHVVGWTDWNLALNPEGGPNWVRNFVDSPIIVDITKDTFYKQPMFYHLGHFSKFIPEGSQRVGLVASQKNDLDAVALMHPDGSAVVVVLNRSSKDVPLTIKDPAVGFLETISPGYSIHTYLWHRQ
Method: (§1) Experiments set forth herein and related to the activity and function of GCase in the presence and absence of compounds of the invention were conducted using imiglucerase (CEREZYME, Genzyme) as the GCase. Cellular materials were obtained from fibroblast lysates expressing wild-type GCase and separately from fibroblast lysates derived from Gaucher disease patient cell lines carrying genotypes that encode either the N370S/N370S or F213I/L444P substitutions in GCase.
(§2) Quantitative determinations of enzymatic activity were performed by way of fluorometric assays utilizing the artificial substrate 4-methylumbelliferyl 2-acetamido-2-deoxy-beta-D-glucopyranoside (MUGlc). Reactions were performed at room temperature for 15-30 minutes, as indicated, using equal aliquots of enzyme (25 μL 20 mM Citrate Phosphate pH 5.5, 0.4% Taurodeoxycholate (TC)) and substrate (25 μL 20 mM Citrate Phosphate pH 5.5, MUGlc 1.6 mM). The amount of MU-fluorophore released in each assay was monitored fluorometrically using a spectrophotofluorometer following the addition of a 4-fold (200 μl) excess of 0.1M MAP, pH 10.5.

[2] = test system: Gaucher disease fibroblast cell lines harboring the N370S/N370S missense mutation; test: Immunohistochemical fluorescence labeling, colocalization of GCase and Lamp-1; assay type: cell-based, human; settings: N370S/N370S fibroblasts
Method: Immunohistochemical fluorescence labeling of GD fibroblast cell lines harboring the N370S/N370S missense mutation were performed with rabbit polyclonal anti-GCase and mouse anti-Lamp-1 (lysosomal membrane associated protein). Cell nuclear staining was performed with 4′-6′-diamidino-2-phenylindole. […] (FIG. 6A, staining with anti-GCase in the presence of ABX; FIG. 6B, staining with anti-Lamp-1 in the presence of ABX; FIG. 6C, merger of FIGS. 6A and 6B; FIG. 6D, staining with anti-GCase in the presence of IFG; FIG. 6E, staining with anti-Lamp-1 in the presence of IFG; FIG. 6F, merger of FIGS. 6D and 6E; FIG. 6G, staining with anti-GCase in the absence of drug; FIG. 6H, staining with anti-Lamp-1 in the absence of drug; FIG. 6I, merger of FIGS. 6G and 6H.)
Immunohistochemical fluorescence labeling of Gaucher disease fibroblast cell lines harboring the N370S/N370S missense mutation was performed with rabbit polyclonal anti-GCase and mouse anti-Lamp-1 (lysosomal membrane associated protein). Cell nuclear staining was performed with 4′-6′-diamidino-2-phenylindole. […] Restored activity and trafficking of mutant GCase are the ultimate goals of a pharmacological chaperone-based therapeutic strategy.

[3] = biological target: T2, human beta-glucocerebrosidase (GCase, CEREZYME) (Homo sapiens, UniProt P04062, R534H); test: GCase activity fluorometric assay (inhibition, kinetics, pH dependence)
T2 sequence (P04062 40-536 R534H): T1 sequence (P04062 40-536 R534H)
Method: as §1, §2
The activity of GCase was also assayed at several different pH values, including 4.5, 5.0, 5.5, 6.0, 6.5 and 7.0.

SMILES: Nc1c(Br)cc(Br)cc1CN[C@H]1CC[C@H](O)CC1 [Ambroxol, trans-4-(2-amino-3,5-dibromobenzylamino) cyclohexanol]
- increase of the half life of GCase [1]: more than three-fold
- increase in GCase activity remaining after incubation ([1]; highest concentration of ambroxol, vs DMSO): more than three-fold
- Colocalization of GCase and Lamp-1 at the lysosome (rescue of mutant GCase trafficking) [2]: Colocalization of GCase and Lamp-1 occurs at the lysosome
- inhibition of GCase under acidic conditions ([3]; 25 μM ambroxol, pH 4.5, 5.0, 5.5, 6.0, 6.5 and 7.0 assayed): only marginally inhibited
- mode of inhibition of GCase ([3]; kinetic analysis): competitive inhibitor

SMILES: CN(Cc1cc(Br)cc(Br)c1N)C1CCCCC1 [Bromhexine, 2-amino-3,5-dibromo-N-cyclohexyl-N-methylbenzenemethanamine]
- IC50 [3]: 60 µM
- inhibitory activity compared with ambroxol ([3]; Table 2 IC50 values): two fold reduction

SMILES: Nc1ccc(Br)cc1Br [Dibromoaniline]
- IC50 ([3]; 0.3 mM MUbGlc as the substrate): Dibromoaniline (NI −1000)

SMILES: O=C(Nc1ccc(Br)cc1Br)c1ccccc1 [Dibromophenyl Benzamide]
- IC50 [3]: > 1000 µM

SMILES: Nc1c(Br)cc(Br)cc1Br [Tribromoaniline]
- IC50 ([3]; 0.3 mM MUbGlc as the substrate): Tribromoaniline (NI −1000)

SMILES: CCC(=O)Oc1c(Br)cc(Br)cc1Br [Tribromophenyl Propanoate]
- IC50 [3]: > 1000 µM

SMILES: OC[C@H]1CNC[C@@H](O)[C@@H]1O [isofagomine]
- increase of the half life of GCase [1]: more than three-fold
